{
  "source": "patent US7973219B2",
  "about": "“Method for producing transgenic plants resistant to weed control compounds which disrupt the porphyrin pathways of plants” (Sumitomo Chemical Company, Limited, priority 1998, dated 2011)",
  "key": {"[1]": {"system": "tobacco introduced with the gene encoding the variant barley ferrochelatase", "assay": "Leaf piece chlorophyll test, tobacco with gene encoding variant barley ferrochelatase", "format": "in vivo", "details": "Table 12; for Resistant level to test compound: same manner as Example 6 (0.3 ppm), treated vs untreated leaf pieces; for Total chlorophyll content treated-leaf: same manner as Example 6 (0.3 ppm, 7 days in light)", "source_text": "(§1) The tobacco leaves into which bchH gene was introduced and control recombinant tobacco leaves obtained in Example 5 were collected and each leaf was divided into the right and left equivalent pieces along the main vein, respectively. To one piece was applied an aqueous solution containing 0.3 ppm PPO inhibitory-type herbicidal compound of Structure 8, while, to the other piece was not applied the compound. These leaf pieces were placed on MS medium containing 0.8% agar and allowed to stand at room temperature for 7 days in light place. Then, each leaf piece was ground with pestle and mortar in 5 ml of 80% aqueous acetone solution to extract chlorophyll. The extract liquid was diluted with 80% aqueous acetone solution and the absorbance was measured at 750 nm, 663 nm and 645 nm to calculate total chlorophyll content according to the method described by Macknney G., J. Biol. Chem. (1941) 140, p 315. The results obtained from 4 clones of tobacco into which bchH gene was introduced (BCH1 to 4) and control recombinant tobacco is shown in Table 4. In the table, the resistant level to the herbicidal compound was represented by percentages of the total chlorophyll content of leaf pieces treated with herbicidal compound to that of untreated leaf pieces.\nLeaf pieces of tobacco cultured sterilely were infected with said Agrobacterium strain and, according to the same manner as in Example 5, tobacco into which the gene encoding the variant barley ferrochelatase was introduced was obtained.\nThe level of resistance to the PPO inhibitory-type herbicidal compound represented by Structure 8 was confirmed quantitatively by testing tobacco into which the gene encoding the variant barley ferrochelatase prepared in Example 21 was introduced according to the same manner as in Example 6. The results obtained from 4 clones (HVF 1-4) of tobacco introduced with the gene encoding the variant barley ferrochelatase and control recombinant tobacco are shown in table 12. In the table, the resistant levels to the herbicidal compound are represented by percentages of the total chlorophyll content of leaf pieces treated with herbicidal compound to that of untreated leaf pieces."}, "[2]": {"system": "tobacco introduced with the gene encoding the variant soybean PPO", "assay": "Leaf piece chlorophyll test, tobacco with gene encoding variant soybean PPO", "format": "in vivo", "details": "Table 8; for Resistant level to test compound: same manner as Example 6 (0.3 ppm), treated vs untreated leaf pieces; for Total chlorophyll content treated-leaf: same manner as Example 6 (0.3 ppm, 7 days in light)", "source_text": "as §1\nLeaf pieces of tobacco cultured sterilely were infected with the Agrobacterium strain and, according to the same manner as in Example 5, tobacco into which the gene encoding the variant soybean PPO was introduced was obtained.\nThe level of resistance to PPO inhibitory type herbicidal compound represented by Structure 8 was confirmed quantitatively by testing tobacco into which the gene encoding the variant soybean PPO prepared in Example 13 was introduced according to the same manner as in Example 6. The results obtained from 4 clones (GMP 1-4) of tobacco introduced with the gene encoding the variant soybean PPO and control recombinant tobacco are shown in Table 8. In the table, the resistant level to herbicidal compound is represented by percentage of the total chlorophyll content of leaf pieces treated with the herbicidal compound to that of untreated leaf pieces."}, "[3]": {"system": "E. coli BT3/pACYCSP+pRASSL strain", "assay": "Growth of E. coli BT3/pACYCSP+pRASSL with herbicidal compound", "format": "cell-based, Escherichia coli", "details": "1 ppm, 18 hours culture, Table 15", "source_text": "According to the description of Gibson, L. C. D. et al., Proc. Natl. Acad. Sci. USA, 92; p 1941 (1995), the DNA fragment containing bchH gene prepared in Example 1 was digested with the restriction enzymes NdeI and BglII. The resultant DNA fragment was inserted between NdeI restriction site and BamHI restriction site of expression vector pET11a (manufactured by Stratagene) to obtain plasmid pETBCH (FIG. 1). This plasmid pETBCH was introduced into E. coli BL21(DE3) strain competent cells (manufactured by Stratagene) according to the manual attached to the competent cells to obtain E. coli BL21(DE3)/pETBCH strain. […] When the absorbance at 600 nm of the liquid culture medium became about 0.6, isopropyl β-D-thiogalactopyranoside (IPTG) was added to the liquid culture medium so that the final concentration was 0.4 mM, and the culture was continued for about additional 20 hours. […]\nThese E. coli strains were inoculated into YPT medium containing 1 ppm of the PPO inhibitory-type herbicidal compound represented by Structure 8, 100 μg/ml ampicillin, 15 μg/ml chloramphenicol, 10 μg/ml kanamycin, 10 μg/ml hemin and 50 μg/ml aminolevulinic acid, cultured under dark conditions or light conditions according to the same manner as in Example 2. Then, 18 hours after initiation of culture, the absorbance of liquid culture medium was measured at 600 nm. […]"}},
  "data": [
    {"smiles": "C#CCOc1cc(N2C(=O)C3=C(CCCC3)C2=O)c(F)cc1Cl", "note": "[Structure 8]", "values": [
      {"measurement": "Resistant level to test compound", "setting": "[1]; clone HVF-1", "result": 106, "unit": "%"},
      {"measurement": "Total chlorophyll content treated-leaf", "setting": "[1]; clone HVF-1", "result": 0.930, "unit": "mg/g-fresh weight"},
      {"measurement": "Resistant level to test compound", "setting": "[1]; clone HVF-2", "result": 102, "unit": "%"},
      {"measurement": "Total chlorophyll content treated-leaf", "setting": "[1]; clone HVF-2", "result": 1.16, "unit": "mg/g-fresh weight"},
      {"measurement": "Resistant level to test compound", "setting": "[1]; clone HVF-3", "result": 98.1, "unit": "%"},
      {"measurement": "Total chlorophyll content treated-leaf", "setting": "[1]; clone HVF-3", "result": 1.04, "unit": "mg/g-fresh weight"},
      {"measurement": "Resistant level to test compound", "setting": "[1]; clone HVF-4", "result": 95.9, "unit": "%"},
      {"measurement": "Total chlorophyll content treated-leaf", "setting": "[1]; clone HVF-4", "result": 1.42, "unit": "mg/g-fresh weight"},
      {"measurement": "Resistant level to test compound", "setting": "[2]; clone GMP-1", "result": 135, "unit": "%"},
      {"measurement": "Total chlorophyll content treated-leaf", "setting": "[2]; clone GMP-1", "result": 2.55, "unit": "mg/g-fresh weight"},
      {"measurement": "Resistant level to test compound", "setting": "[2]; clone GMP-2", "result": 108, "unit": "%"},
      {"measurement": "Total chlorophyll content treated-leaf", "setting": "[2]; clone GMP-2", "result": 0.96, "unit": "mg/g-fresh weight"},
      {"measurement": "Resistant level to test compound", "setting": "[2]; clone GMP-3", "result": 99.3, "unit": "%"},
      {"measurement": "Total chlorophyll content treated-leaf", "setting": "[2]; clone GMP-3", "result": 1.49, "unit": "mg/g-fresh weight"},
      {"measurement": "Resistant level to test compound", "setting": "[2]; clone GMP-4", "result": 80.4, "unit": "%"},
      {"measurement": "Total chlorophyll content treated-leaf", "setting": "[2]; clone GMP-4", "result": 2.34, "unit": "mg/g-fresh weight"},
      {"measurement": "Relative absorbance", "setting": "[3]; in the dark", "result": 1.0},
      {"measurement": "Relative absorbance", "setting": "[3]; in the light", "result": 0.59}
    ]}
  ]
}
